# Test results: US20210169911A1, “PURINE AND PYRIMIDINE NUCLEOTIDES AS ECTO-5'-NUCLEOTIDASE INHIBITORS” (The United States of America,as represented by the …, priority 2018, published 2021)
# Assays:
# human P2Y6 receptor = molecular target: T1, human P2Y6 receptor (Homo sapiens, UniProt Q15077); test: Human P2Y6 receptor assay, calcium mobilization in 1321N1 astrocytoma cells; format: cell-based; conditions: 1321N1 cells expressing human P2Y6, read-out: hP2Y6 EC50 ± SEM
# T1 construct: expressed in transfected cells; host or cells: 1321N1 human astrocytoma cells
# Method: Calcium mobilization induced by the nucleotide derivatives was measured in a human astrocytoma cell line (1321N1) expressing the human P2Y6 receptor, as previously described (33).
# [1] = molecular target: T2, recombinant soluble rat CD73 (Rattus norvegicus, UniProt P21588); test: Radiometric rat ecto-5′-nucleotidase (CD73) assay with [3H]AMP
# T2 sequence (P21588 29-551 limits assumed): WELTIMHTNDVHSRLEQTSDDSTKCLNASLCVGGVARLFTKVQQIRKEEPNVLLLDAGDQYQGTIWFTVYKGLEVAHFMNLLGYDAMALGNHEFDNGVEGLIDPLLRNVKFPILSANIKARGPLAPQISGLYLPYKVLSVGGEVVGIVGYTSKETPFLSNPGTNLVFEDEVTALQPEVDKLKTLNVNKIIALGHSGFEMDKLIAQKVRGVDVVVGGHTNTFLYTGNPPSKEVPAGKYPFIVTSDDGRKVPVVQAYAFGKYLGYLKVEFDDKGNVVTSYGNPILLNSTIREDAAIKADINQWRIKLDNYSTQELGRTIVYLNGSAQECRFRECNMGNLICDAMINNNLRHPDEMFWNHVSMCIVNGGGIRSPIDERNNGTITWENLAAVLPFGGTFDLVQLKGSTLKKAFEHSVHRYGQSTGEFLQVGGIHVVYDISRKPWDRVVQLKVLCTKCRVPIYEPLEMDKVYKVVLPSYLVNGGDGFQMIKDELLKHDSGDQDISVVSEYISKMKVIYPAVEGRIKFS
# Method: After the enzymatic reaction, the substrate was separated from its product [2,8-^3H]adenosine by precipitation with lanthanum chloride followed by filtration through glass fiber filters (34). […] Ki values were calculated from the obtained IC50 values using the Cheng-Prusoff equation (6,7).
# The assay was performed as previously described (41) using recombinant rat CD73 expressed in Sf9 insect cells (33). […] The mixture was incubated for 25 min at 37° C. The reaction was stopped by adding 500 μL of ice-cooled precipitation buffer containing 100 mM aqueous lanthanum chloride and 100 mM aqueous sodium acetate solution (pH 4.0). After 30 min, the precipitation was filtered through GF/B glass fiber filters (M-48, Brandel, Gaithersburg, Md., USA). After washing three times, 4 mL of the scintillation cocktail ULTIMA Gold XR was added and then quantified by scintillation counting (TRICARB 2900 TR, Packard/PerkinElmer). Three separate inhibition assays were performed in triplicate, concentration-response curves were fitted, and Ki values were calculated.
# The assay was performed essentially as previously described.^D Stock solutions (10 mM) of the compounds were prepared in demineralized water and further dilutions were performed in assay reaction buffer (25 mM Tris, 140 mM sodium chloride, 25 mM sodium dihydrogen phosphate, pH 7.4). 10 μL of the inhibitor solution were added to 70 μL of assay reaction buffer. […] The enzymatic reaction was performed for 25 min at 37° C. in a shaking water bath. […] After the precipitation was completed (after at least 30 min on ice), the mixture was separated by filtration through GF/B glass fiber filters using a cell harvester (M-48, Brandel, Gaitherburg, Md., USA). After washing each reaction vial three times with 400 μl of cold (4° C.) demineralized water, 5 ml of the scintillation cocktail (ULTIMA Gold XR, PerkinElmer, MA, USA) was added and radioactivity was measured by scintillation counting (TRICARB 2900 TR, Packard/PerkinElmer; counting efficacy: 49-52%). Two controls were included and measured as duplicates. One reaction was performed without the inhibitor resulting in 100% enzyme activity (positive control) and one was incubated without the inhibitor and the enzyme and served as background control. The resulting data were subtracted from the background and were normalized with to the positive control. The results were plotted, and concentration-inhibition curves were fitted with GraphPad Prism 5 (GraphPad Software, La Jolla, USA).
# After 30 min, the precipitation was filtered through GF/B glass fiber filters (M-48, Brandel, Gaithersburg, Md., USA). After washing three times, 4 mL of the scintillation cocktail ULTIMA Gold XR was added and then quantified by scintillation counting (TRICARB 2900 TR, Packard/PerkinElmer). Three separate inhibition assays were performed in triplicate, concentration-response curves were fitted, and K, values were calculated.
# [2] = molecular target: T3, CD73 in human tonsillary tissue (Homo sapiens, UniProt P21589); test: Human tonsillar CD73-mediated AMPase activity in tonsil cryosections; format: biochemical; conditions: 1, 10, and 100 nM; mean pixel intensity, FIG. 10
# T3 construct: Palatine tonsils were obtained from adult patients with chronic tonsillitis; from tissue; host or cells: human palatine tonsil cryosections
# T3 sequence (P21589 27-549): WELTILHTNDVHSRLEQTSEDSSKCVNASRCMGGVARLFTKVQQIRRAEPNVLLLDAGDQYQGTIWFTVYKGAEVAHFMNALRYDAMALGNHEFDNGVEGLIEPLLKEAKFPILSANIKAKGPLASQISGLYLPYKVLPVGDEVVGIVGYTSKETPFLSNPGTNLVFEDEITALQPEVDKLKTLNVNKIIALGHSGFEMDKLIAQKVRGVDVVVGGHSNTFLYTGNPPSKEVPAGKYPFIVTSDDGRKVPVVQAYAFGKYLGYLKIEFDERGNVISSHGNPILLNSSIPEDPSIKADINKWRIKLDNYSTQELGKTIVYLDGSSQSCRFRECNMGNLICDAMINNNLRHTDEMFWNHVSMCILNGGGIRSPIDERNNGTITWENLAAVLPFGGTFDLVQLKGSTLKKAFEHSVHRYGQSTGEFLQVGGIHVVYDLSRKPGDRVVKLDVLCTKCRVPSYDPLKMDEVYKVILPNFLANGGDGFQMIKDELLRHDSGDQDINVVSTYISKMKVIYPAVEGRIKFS
# Method: Palatine tonsils were obtained from adult patients with chronic tonsillitis undergoing routine tonsillectory. The tonsils were washed with phisiological salt solution, embedded in the cyro-mold with Tissue-Tek O.C.T. compound (Sakura Finetek Europe B.V., the Nethelands), cut using a cryostat and stored at −80° C. Tonsil cryoselctions were preincubated for 30 min in Trizma maleate sucrose buffer supplemented with the alkaline phosphatase inhibitor levamisole and different concentrations of compound 9h. The enzymatic reaction was then performed for 45 min at 37° C. in a final volume of […] of TMSB-buffered substrate solution containing Pb (NO3)2, CaCl2, and tested CD73 inhibitor at the same concentration. The lead orthophosphate precipitated in the course of nucleotidase activity was visualized as a brown deposit by incubating sections in (NH3)2S for 30s, followed by three washed in Trizma-maleate buffer for 5 min each. Slides were mounted with Aquatex medium (Merck, Germany). Multiple images of adjacent tissue areas were captured using a slide scanner and further stitched to a larger overview. The images of control and treated tissues were captured at identical exposure times and other settings and further acquired in parallel. Nucleotidase activities were quantified as mean pixel intensities after grayscale conversion.
# [3] = molecular target: T4, membrane-bound CD73 (membrane preparation of MDA-MB-231 cells) (Homo sapiens, UniProt P21589); test: Radiometric CD73 inhibition assay, membrane preparations of MDA-MB-231 cells
# T4 sequence (P21589 27-549): T3 sequence (P21589 27-549)
# Method: After the enzymatic reaction, the substrate was separated from its product [2,8-^3H]adenosine by precipitation with lanthanum chloride followed by filtration through glass fiber filters (34). For compounds that inhibited CD73 activity by more than 50% at an initial screening concentration of 1 μM, full concentration-response curves were determined in at least three separate experiments performed in duplicates using 10 different concentrations of inhibitor. Ki values were calculated from the obtained IC50 values using the Cheng-Prusoff equation (6,7). […]
# The assay was performed essentially as previously described.^D Stock solutions (10 mM) of the compounds were prepared in demineralized water and further dilutions were performed in assay reaction buffer (25 mM Tris, 140 mM sodium chloride, 25 mM sodium dihydrogen phosphate, pH 7.4). […] After washing each reaction vial three times with 400 μl of cold (4° C.) demineralized water, 5 ml of the scintillation cocktail (ULTIMA Gold XR, PerkinElmer, MA, USA) was added and radioactivity was measured by scintillation counting (TRICARB 2900 TR, Packard/PerkinElmer; counting efficacy: 49-52%). Two controls were included and measured as duplicates. […]
# human P2Y14 receptor = molecular target: T5, human P2Y14 receptor (Homo sapiens, UniProt Q15391); test: Human P2Y14 receptor assay, inhibition of binding of a fluorescent antagonist, flow cytometry in CHO cells; conditions: CHO cells expressing human P2Y14, read-out: hP2Y14 IC50 ± SEM
# T5 construct: expressed in transfected cells; host or cells: CHO cells
# T5 sequence (Q15391 1-338): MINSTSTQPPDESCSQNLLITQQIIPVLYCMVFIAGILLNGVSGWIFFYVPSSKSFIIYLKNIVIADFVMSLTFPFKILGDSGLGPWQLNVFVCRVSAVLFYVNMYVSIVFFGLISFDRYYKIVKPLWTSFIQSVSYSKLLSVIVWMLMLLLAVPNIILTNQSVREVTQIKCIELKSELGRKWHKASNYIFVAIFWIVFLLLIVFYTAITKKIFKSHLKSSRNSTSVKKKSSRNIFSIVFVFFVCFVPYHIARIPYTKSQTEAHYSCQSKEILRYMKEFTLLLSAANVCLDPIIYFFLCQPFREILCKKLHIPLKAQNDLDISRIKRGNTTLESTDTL
# Method: Inhibition of binding of a high affinity fluorescent antagonist was measured using flow cytometry in a CHO cell line expressing the human P2Y14 receptor, as previously described (34).
# [4] = tested on: recombinant soluble human CD73; test: Radiometric CD73 inhibition assay, recombinant soluble human CD73; format: biochemical; conditions: human vs rat CD73 Ki, Table 5
# Method: The cDNA for the soluble human CD73 (Genbank accession no. NM_002526) was obtained from Prof. Dr. Norbert Sträter (University of Leipzig, Germany) (3). […] Sf9 insect cells were grown in Insect-[…] media (#: BE12-[…], Lonza, Switzerland) with 10 mg/l gentamicin and split at a ratio of 1:3 every fourth day. For transfection, cells were seeded into cell culture flasks (25 cm^2) at 60-70% confluence. 100 μl of cell medium and 1 μl of the vector DNA (1000 ng/μ1) were mixed with 2.5 μl of baculovirus genomic ProEasyTM vector DNA (AB vector, CA, USA) and combined with premixed 100 μl of cell medium and 8 μl of CellfectinTM II Reagent (Thermo Fisher Scientific, MA, USA). […] The cells were incubated for 30 min at rt, and for further 4 days at 27° C. Cells from the transfection procedure were detached from the bottom of the flasks and centrifuged for 5 min at 2000 g. 1.5 ml of the supernatant (viral stock) was added to 75 cm^2 cell culture flasks containing Sf9 cells (60-70% confluence), and the cells were incubated for four days at 27° C. Then 1.5 ml of the supernatant were taken and added to uninfected Sf9 cells in a 75 cm^2 flask. This was repeated five more times, using more cells and larger flasks after the third round of infections (150 cm^2 to which 3.0 ml of supernatant were added). The stock P8 was finally used for infection of the cells. For protein expression, 3 ml of the virus solution were used to infect 150 ml of cell media containing 2×10^6 cells/ml in a 500 ml Erlenmeyer flask, and they were incubated for 4 days at 27° C. with shaking (150 rpm). Then, cell suspensions were transferred to 50 ml falcon tubes and centrifuged at 15 min at 5000 g at 4° C. The supernatants were subjected to ultrafiltration using Amicon® Ultra-15, 10 kDa cut-off (Merck Millipore, MA, USA) at 5000 g for 15-30 min at 4° C. The concentrated protein was purified with HisPurTM Ni^2+-NTA spin columns (#: 88226, Thermo Fisher Scientific, MA, USA). The elution of the columns was performed as recommended in the instruction manual with adjusting the incubation time for protein binding to 1 h at 4° C. with an end-over-end mixer and an additional incubation step of 5 min with the elution buffer before eluting. Eluates were pooled and dialyzed (Membra-Cer, 14 kDa cut-off, 250 mm×44 mm×0.02 mm; Carl Roth, Germany) at 4° C. in 25 mM Tris, pH 7.4, with a volume adjusted to 40 times the volume of the elution fraction. […] The enzyme was aliquoted and stored at -80° C. until use.
# T1 sequence (Q15077 whole entry): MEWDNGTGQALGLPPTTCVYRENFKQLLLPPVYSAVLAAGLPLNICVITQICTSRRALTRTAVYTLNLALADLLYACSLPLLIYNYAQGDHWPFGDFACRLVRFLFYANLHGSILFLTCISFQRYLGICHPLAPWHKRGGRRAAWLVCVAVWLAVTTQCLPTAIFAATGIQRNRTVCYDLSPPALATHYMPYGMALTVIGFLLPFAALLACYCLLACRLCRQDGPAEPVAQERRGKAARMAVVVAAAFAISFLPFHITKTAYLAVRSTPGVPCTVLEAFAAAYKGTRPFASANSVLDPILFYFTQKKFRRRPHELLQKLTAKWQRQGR
smiles,measurement,setting,value
"Cn1c(=O)n([C@@H]2O[C@H](COP(=O)(O)CP(=O)(O)O)[C@@H](O)[C@H]2O)cc/c1=N/OCc1ccccc1 [Compound 9h, N^4-[O-(4-Benzyloxy)]-3-methyl-cytidine-5′-O-[(phosphonomethyl)phosphonic acid]]",EC50,human P2Y6 receptor,> 3000 µM
same,Ki,[1],0.00367 µM
same,inhibition of the catalytic activity of CD73 in human tonsillary tissue,[2],inhibited the catalytic activity of CD73 in a concentration-dependent manner
same,Ki,[3],0.00796 µM
same,IC50,human P2Y14 receptor,> 3000 µM
same,potency at human CD73 as compared to the rat enzyme,[4],somewhat less potent
